Earlier results as cited in PMC2933614, “Quantitative in vitro and in vivo pharmacological profile of CE-178253, a potent and selective cannabinoid type 1 (CB1) Receptor Antagonist” (BMC Pharmacology, 2010).

Key:
[1] = set-up: method as in PMID 12055133; conditions: 0.5 mg/kg; 2-AG-mediated hyperphagia; cited from earlier work
[2] = tested on: CB1 receptor; set-up: method as in PMID 17327489; conditions: cited from earlier work

In the case of `Cc1c(C(=O)NN2CCCCC2)nn(-c2ccc(Cl)cc2Cl)c1-c1ccc(Cl)cc1` [SR141716A], the “Attenuation of FI” value [1] is given as ~ 50%.

For `C[C@H](NC(=O)C(C)(C)Oc1ccc(C(F)(F)F)cn1)[C@@H](Cc1ccc(Cl)cc1)c1cccc(C#N)c1` [taranabant], the “Receptor occupancy required for maximal weight loss efficacy” value [2] is listed as 60-90%.
